Like-named read-outs stand apart in the source and are kept apart here. Positions of bridges follow the written chain, without caps; N, C: chain ends. Non-standard residues stand in square brackets, D forms with d. Residues, ends and D or L forms follow the SMILES beside them. *: point of attachment. Trp(7-(3-AcNH-Ph)) = CC(=O)Nc1cccc(-c2cccc3c(C[C@H](N)C(=O)O)c[nH]c23)c1; Me3N+(CH2)2O(CH2)2O(CH2)2CO = C[N+](C)(C)CCOCCOCCC(=O)*; 2Nal(6-OH) = N[C@@H](Cc1ccc2cc(O)ccc2c1)C(=O)O; Trp(7-Me) = Cc1cccc2c(C[C@H](N)C(=O)O)c[nH]c12; dLys(Me3) = C[N+](C)(C)CCCC[C@@H](N)C(=O)O; 3Pal(5-Me) = Cc1cncc(C[C@H](N)C(=O)O)c1; AEF = NCCOc1ccc(C[C@H](N)C(=O)O)cc1; 3Pal = N[C@@H](Cc1cccnc1)C(=O)O; Ethyl(2-guanidino) = N=C(N)NCC*; Aad = N[C@@H](CCCC(=O)O)C(=O)O; Lys(Me) = CNCCCC[C@H](N)C(=O)O; Pen = CC(C)(S)[C@H](N)C(=O)O; Thp = NC1(C(=O)O)CCOCC1; X18 = C[N+](C)(C)CCCCC*; Sar = CNCC(=O)O
How the values were obtained:
[1] = disulfide bond, 20-membered ring
[2] = target: T1, IL-23-stimulated phosphorylated STAT3 in peripheral blood mononuclear cells (PBMCs) (Homo sapiens, UniProt Q5VWK5); assay: PBMC pSTAT3 Assay; format: cell-based; conditions: PBMCs from healthy donors, IL-23 5 ng/mL, 30 minutes, read-out: PBMC pSTAT3 IC50
T1 sequence (Q5VWK5 24-629): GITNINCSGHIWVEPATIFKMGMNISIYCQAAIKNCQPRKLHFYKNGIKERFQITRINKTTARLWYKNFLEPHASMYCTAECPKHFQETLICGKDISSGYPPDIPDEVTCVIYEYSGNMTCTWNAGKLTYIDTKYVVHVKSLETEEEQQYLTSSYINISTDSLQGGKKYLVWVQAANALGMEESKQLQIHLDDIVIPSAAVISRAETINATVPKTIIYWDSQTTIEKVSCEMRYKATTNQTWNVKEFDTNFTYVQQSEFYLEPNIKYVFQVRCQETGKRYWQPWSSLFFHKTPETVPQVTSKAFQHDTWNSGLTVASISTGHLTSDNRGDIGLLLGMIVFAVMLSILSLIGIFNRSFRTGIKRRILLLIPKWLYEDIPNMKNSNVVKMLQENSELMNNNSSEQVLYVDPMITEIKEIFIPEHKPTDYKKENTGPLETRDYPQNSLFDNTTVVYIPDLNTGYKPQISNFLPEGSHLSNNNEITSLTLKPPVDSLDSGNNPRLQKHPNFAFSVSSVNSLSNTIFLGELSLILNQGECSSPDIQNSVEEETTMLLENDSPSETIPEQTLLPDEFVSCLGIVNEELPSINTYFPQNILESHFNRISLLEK
Description: Cryopreserved peripheral blood mononuclear cells (PBMCs) from healthy donors were thawed and washed twice in ImmunoCult-XF T cell expansion medium (XF-TCEM) supplemented with CTL anti-aggregate wash. The cells were counted, resuspended at 2-6×10^5 cells per mL XF-TCEM supplemented with penicillin/streptomycin and 100 ng/mL IL-1β (BioLegend, 579404), and cultured in tissue culture flasks coated with anti-CD3 (eBioscience, 16-0037-85 or BD Pharmingen, 555329) at 37° C. in 5% CO2. On day 4 of culture, PBMCs were collected, washed twice in RPMI-1640 supplemented with 0.1% BSA (RPMI-BSA), and incubated in RPMI-BSA in upright tissue culture flasks for ˜4 hours at 37° C. in 5% CO2. Following this ‘starvation,’ a total of 6×10^4 cells in 30 μL RPMI-BSA was transferred into each well of a 384-well plate pre-spotted with peptide or DMSO. The cells were incubated for 30 minutes prior to the addition of IL-23 at a final concentration of 5 ng/mL. The cells were stimulated with cytokine for 30 minutes at 37° C. in 5% CO2, transferred onto ice for 10 minutes, and lysed. Cell lysates were stored at −80° C. until phosphorylated STAT3 was measured using the phospho-STAT panel kit (Meso Scale Discovery, K15202D).

IL-23R = target: T2, IL-23R (Homo sapiens, UniProt Q5VWK5); assay: IL23R Reporter Assay; format: cell-based; conditions: HEK293 cells containing IL-23R, IL-12Rβ1 and STAT-inducible luciferase reporter; 10 ng/mL IL-23; 5 h; read-out: IC50
T2 construct: host or cells: HEK293
T2 sequence (Q5VWK5 24-629): T1 sequence (Q5VWK5 24-629)
Description: Compounds were serially diluted in 100% (v/v) DMSO) and plated using an Echo acoustic dispenser (Labcyte) into 1536-well non-treated black assay plates (Corning #9146). […] After 5 h at 37° C., 5% CO2, 95% relative humidity, cells were placed at 20° C. and treated with BioGlo reagent (Promega) according to the Manufacturer's instructions. Luminescence was measured on a Pherastar FSX (BMG LabTech).

Compound | IC50 [2] | IC50 (IL-23R) | ring closure, yield after HPLC ([1]; I2/AcOH, MeCN/H2O, 2.19 mM) | ring closure, yield after HPLC ([1]; from Ac-dArg-Pen-Asn-Thr-7MeTrp-Lys(Ac)-Pen-AEF-6OH2Nal-THP-Glu-Asn-3Pya-Sar-NH2)
MeCO-k(d)-Pen(3)-N-T-7MeW-K(Ac)-Pen(3)-AEF-6OH2Nal-THP-E-N-3Pya-Sar-CONH2 |  |  | 31% | 
CC(=O)NCCCC[C@@H]1NC(=O)[C@H](Cc2c[nH]c3c(C)cccc23)NC(=O)[C@H]([C@@H](C)O)NC(=O)[C@H](CC(N)=O)NC(=O)[C@@H](NC(=O)[C@@H](CCCNC(=N)N)NC(C)=O)C(C)(C)SSC(C)(C)[C@@H](C(=O)N[C@@H](Cc2ccc(OCCN)cc2)C(=O)N[C@@H](Cc2ccc3cc(O)ccc3c2)C(=O)NC2(C(=O)N[C@@H](CCC(=O)O)C(=O)N[C@@H](CC(N)=O)C(=O)N[C@@H](Cc3cccnc3)C(=O)N(C)CC(N)=O)CCOCC2)NC1=O |  |  |  | 10.3%
CC(=O)NCCCC[C@@H]1NC(=O)[C@H](Cc2c[nH]c3c(C)cccc23)NC(=O)[C@H]([C@@H](C)O)NC(=O)[C@H](CC(N)=O)NC(=O)[C@@H](NC(=O)[C@@H](CCCNC(=N)N)NC(C)=O)C(C)(C)SSC(C)(C)[C@@H](C(=O)N[C@@H](Cc2ccc(OCCCCC[N+](C)(C)C)cc2)C(=O)N[C@@H](Cc2ccc3cc(O)ccc3c2)C(=O)NC2(C(=O)N[C@@H](CCC(=O)O)C(=O)N[C@@H](CC(N)=O)C(=O)N[C@@H](Cc3cccnc3)C(=O)N(C)CC(N)=O)CCOCC2)NC1=O [compound 59, MeCO-r-Pen(3)-N-T-7MeW-K(Ac)-Pen(3)-TMAPF-6OH2Nal-THP-E-N-3Pya-Sar-CONH2] (Ac-[dR][Pen]NT[Trp(7-Me)]K(Ac)[Pen]Y(X18)[2Nal(6-OH)][Thp]EN[3Pal][Sar]-NH2; disulfide 2-7) | 0.01 to 0.1 nM | < 10 nM |  | 
CC(=O)NCCCC[C@@H]1NC(=O)[C@H](Cc2c[nH]c3c(-c4cccc(NC(C)=O)c4)cccc23)NC(=O)[C@H]([C@@H](C)O)NC(=O)[C@H](CC(N)=O)NC(=O)[C@@H](NC(=O)CCOCCOCC[N+](C)(C)C)C(C)(C)SSC(C)(C)[C@@H](C(=O)N[C@@H](Cc2ccc(OCCNC(=N)N)cc2)C(=O)N[C@@H](Cc2ccc3cc(O)ccc3c2)C(=O)NC2(C(=O)N[C@@H](CCCCN(C)C(C)=O)C(=O)N[C@@H](CC(N)=O)C(=O)N[C@@H](Cc3cccnc3)C(=O)N(C)CC(N)=O)CCOCC2)NC1=O [compound 34, cPEG3aCO-Pen(3)-N-T-7(3NAcPh)W-K(Ac)-Pen(3)-AEF(G)-6OH2Nal-THP-K(NMeAc)-N-3Pya-Sar-CONH2] ({Me3N+(CH2)2O(CH2)2O(CH2)2CO}-[Pen]NT[Trp(7-(3-AcNH-Ph))]K(Ac)[Pen]Y(Ethyl(2-guanidino))[2Nal(6-OH)][Thp][Lys(Me)](Ac)N[3Pal][Sar]-NH2; disulfide 1-6) | 0.01 to 0.1 nM | < 10 nM |  | 
CC(=O)NCCCC[C@@H]1NC(=O)[C@H](Cc2c[nH]c3c(-c4cccc(NC(C)=O)c4)cccc23)NC(=O)[C@H]([C@@H](C)O)NC(=O)[C@H](CC(N)=O)NC(=O)[C@@H](NC(=O)[C@@H](CCCC[N+](C)(C)C)NC(C)=O)C(C)(C)SSC(C)(C)[C@@H](C(=O)N[C@@H](Cc2ccc(OCCNC(=N)N)cc2)C(=O)N[C@@H](Cc2ccc3cc(O)ccc3c2)C(=O)NC2(C(=O)N[C@@H](CCC(=O)O)C(=O)N[C@@H](CC(N)=O)C(=O)N[C@@H](Cc3cncc(C)c3)C(=O)N(C)CC(N)=O)CCOCC2)NC1=O [compound 11, MeCO-k(Me)3-Pen(3)-N-T-7(3NAcPh)W-K(Ac)-Pen(3)-AEF(G)-6OH2Nal-THP-E-N-5MePyridinAla-Sar-CONH2] (Ac-[dLys(Me3)][Pen]NT[Trp(7-(3-AcNH-Ph))]K(Ac)[Pen]Y(Ethyl(2-guanidino))[2Nal(6-OH)][Thp]EN[3Pal(5-Me)][Sar]-NH2; disulfide 2-7) | < 0.01 nM | < 10 nM |  | 

More lines, main results first:

IC50 [2] | IC50 (IL-23R) | Compound | ring closure, yield after HPLC ([1]; I2/AcOH, MeCN/H2O, 2.19 mM) | ring closure, yield after HPLC ([1]; from Ac-dArg-Pen-Asn-Thr-7MeTrp-Lys(Ac)-Pen-AEF-6OH2Nal-THP-Glu-Asn-3Pya-Sar-NH2)
0.01 to 0.1 nM | < 10 nM | CC(=O)NCCCC[C@@H]1NC(=O)[C@H](Cc2c[nH]c3c(-c4cccc(NC(C)=O)c4)cccc23)NC(=O)[C@H]([C@@H](C)O)NC(=O)[C@H](CC(N)=O)NC(=O)[C@@H](NC(=O)[C@@H](CCCC[N+](C)(C)C)NC(C)=O)C(C)(C)SSC(C)(C)[C@@H](C(=O)N[C@@H](Cc2ccc(OCCN)cc2)C(=O)N[C@@H](Cc2ccc3cc(O)ccc3c2)C(=O)NC2(C(=O)N[C@@H](CCC(=O)O)C(=O)N[C@@H](CC(N)=O)C(=O)N[C@@H](Cc3cccnc3)C(=O)N(C)CC(N)=O)CCOCC2)NC1=O [compound 68, MeCO-k(Me)3-Pen(3)-N-T-7(3NAcPh)W-K(Ac)-Pen(3)-AEF-6OH2Nal-THP-E-N-3Pya-Sar-CONH2] (Ac-[dLys(Me3)][Pen]NT[Trp(7-(3-AcNH-Ph))]K(Ac)[Pen][AEF][2Nal(6-OH)][Thp]EN[3Pal][Sar]-NH2; disulfide 2-7) |  | 
< 0.01 nM | < 10 nM | CC(=O)N(C)CCCC[C@@H]1NC(=O)[C@H](Cc2c[nH]c3c(C)cccc23)NC(=O)[C@H]([C@@H](C)O)NC(=O)[C@H](CC(N)=O)NC(=O)[C@@H](NC(=O)CCOCCOCC[N+](C)(C)C)C(C)(C)SSC(C)(C)[C@@H](C(=O)N[C@@H](Cc2ccc(OCCN)cc2)C(=O)N[C@@H](Cc2ccc3cc(O)ccc3c2)C(=O)NC2(C(=O)N[C@@H](CCC(=O)N(C)C)C(=O)N[C@@H](CC(N)=O)C(=O)N[C@@H](Cc3cccnc3)C(=O)N(C)CC(N)=O)CCOCC2)NC1=O [compound 392, cPEG3aCO-Pen(3)-N-T-7MeW-K(NMeAc)-Pen(3)-AEF-6OH2Nal-THP-Q(N(Me)2)-N-3Pya-Sar-CONH2] ({Me3N+(CH2)2O(CH2)2O(CH2)2CO}-[Pen]NT[Trp(7-Me)][Lys(Me)](Ac)[Pen][AEF][2Nal(6-OH)][Thp]E(NMe2)N[3Pal][Sar]-NH2; disulfide 1-6) |  | 
0.01 to 0.1 nM | < 10 nM | Cc1cccc2c(C[C@@H]3NC(=O)[C@H]([C@@H](C)O)NC(=O)[C@H](CC(N)=O)NC(=O)[C@@H](NC(=O)CCOCCOCC[N+](C)(C)C)C(C)(C)SSC(C)(C)[C@@H](C(=O)N[C@@H](Cc4ccc(OCCN)cc4)C(=O)N[C@@H](Cc4ccc5cc(O)ccc5c4)C(=O)NC4(C(=O)N[C@@H](CCC(=O)O)C(=O)N[C@@H](CC(N)=O)C(=O)N[C@@H](Cc5cccnc5)C(=O)N(C)CC(N)=O)CCOCC4)NC(=O)[C@H](CCCCN(C)C(=O)CCOCCOCC[N+](C)(C)C)NC3=O)c[nH]c12 [compound 319, cPEG3aCO-Pen(3)-N-T-7MeW-K(NMecPEG3a)-Pen(3)-AEF-6OH2Nal-THP-E-N-3Pya-Sar-CONH2] ({Me3N+(CH2)2O(CH2)2O(CH2)2CO}-[Pen]NT[Trp(7-Me)][Lys(Me)](Me3N+(CH2)2O(CH2)2O(CH2)2CO)[Pen][AEF][2Nal(6-OH)][Thp]EN[3Pal][Sar]-NH2; disulfide 1-6) |  | 
< 0.01 nM | < 10 nM | CC(=O)N(C)CCCC[C@@H]1NC(=O)[C@H](Cc2c[nH]c3c(C)cccc23)NC(=O)[C@H]([C@@H](C)O)NC(=O)[C@H](CC(=O)N(C)C)NC(=O)[C@H]2NC(=O)[C@H](NC(=O)CCOCCOCC[N+](C)(C)C)CCCCNC(=O)CCC[C@@H](C(=O)N[C@@H](CC(N)=O)C(=O)N[C@@H](Cc3cccnc3)C(=O)N(C)CC(=O)N(C)C)NC(=O)C3(CCOCC3)NC(=O)[C@H](Cc3ccc4cc(O)ccc4c3)NC(=O)[C@H](Cc3ccc(OCCN)cc3)NC(=O)[C@@H](NC1=O)C(C)(C)SSC2(C)C [compound 373, cPEG3aCO-k(2)-Pen(3)-N(N(Me)2)-T-7MeW-K(NMeAc)-Pen(3)-AEF-6OH2Nal-THP-hE(2)-N-3Pya-Sar-CON(Me)2] ({Me3N+(CH2)2O(CH2)2O(CH2)2CO}-[dK][Pen]D(NMe2)T[Trp(7-Me)][Lys(Me)](Ac)[Pen][AEF][2Nal(6-OH)][Thp][Aad]N[3Pal][Sar]-NMe2; lactam 1-11; disulfide 2-7) |  | 
